The CheMixHub viscosity set
“And” between values parts separate entries of the source, which are not always exact repeats. Equal values may be shown once. ± gives the uncertainty stated by the source.

O=C1CCCO1
viscosity
Settings	293.15 K	298.15 K	303.15 K	308.15 K	313.15 K	318.15 K	323.15 K
100 kPa	1.92 ± 0.04 mPa·s	1.73 ± 0.07 mPa·s and 1.73 ± 0.04 mPa·s (3×)	1.63 ± 0.07 mPa·s and 1.63 ± 0.04 mPa·s (3×) and 1.59 ± 0.03 mPa·s	1.52 ± 0.06 mPa·s and 1.52 ± 0.03 mPa·s (3×)	1.42 ± 0.06 mPa·s and 1.42 ± 0.03 mPa·s (3×)	1.35 ± 0.06 mPa·s and 1.35 ± 0.03 mPa·s (3×)	1.3 ± 0.05 mPa·s and 1.3 ± 0.03 mPa·s (3×)
101 kPa	–	1.74 ± 0.1 mPa·s and 1.764 ± 0.015 mPa·s	–	1.477 ± 0.024 mPa·s and 1.522 ± 0.013 mPa·s and 1.429 ± 0.1 mPa·s	–	1.286 ± 0.022 mPa·s and 1.33 ± 0.012 mPa·s and 1.234 ± 0.089 mPa·s	1.206 ± 0.021 mPa·s and 1.22 ± 0.08 mPa·s
101.3 kPa	–	1.75 ± 0.33 mPa·s	–	–	–	–	–
101.33 kPa	1.883 ± 0.017 mPa·s	1.738 ± 0.013 mPa·s and 1.745 ± 0.016 mPa·s	1.765 ± 0.029 mPa·s and 1.61 ± 0.013 mPa·s and 1.612 ± 0.015 mPa·s	1.498 ± 0.014 mPa·s	1.39 ± 0.011 mPa·s	–	1.213 ± 0.01 mPa·s

COc1ccccc1O
101 kPa
Settings	viscosity [mPa·s]
303.15 K	4.45 ± 0.12
308.15 K	4.138 ± 0.051

CC(C)[N+](=O)[O-]
Settings	viscosity [mPa·s]
293.15 K, 101.33 kPa	0.771 ± 0.008

O
Settings	viscosity
293.15 K, 100 kPa	0.994 ± 0.012 mPa·s and 0.991 ± 0.08 mPa·s
295 K, 101.3 kPa	0.975 ± 0.07 mPa·s
295.15 K, 101 kPa	0.955 ± 0.009 mPa·s and 0.9548 ± 0.01 mPa·s
295.65 K, 100.9 kPa	0.9432 ± 0.029 mPa·s
297.15 K, 101 kPa	0.9111 ± 0.0096 mPa·s
298.15 K, 100 kPa	0.884 ± 0.071 mPa·s and 0.901 ± 0.055 mPa·s
298.15 K, 101.3 kPa	0.876 ± 0.036 mPa·s
298.15 K, 101.33 kPa	0.918 ± 0.025 mPa·s
299.15 K, 101 kPa	0.8705 ± 0.0092 mPa·s
300.15 K, 101 kPa	0.797 ± 0.021 mPa·s
300.65 K, 100.9 kPa	0.8417 ± 0.026 mPa·s
301.15 K, 101 kPa	0.8327 ± 0.0088 mPa·s
302.15 K, 101 kPa	0.917 ± 0.2 mPa·s
303.15 K, 100 kPa	0.796 ± 0.064 mPa·s and 0.81 ± 0.04 mPa·s
305.15 K, 101 kPa	0.816 ± 0.18 mPa·s and 0.717 ± 0.02 mPa·s
305.65 K, 100.9 kPa	0.7567 ± 0.023 mPa·s
307.15 K, 101 kPa	0.734 ± 0.0077 mPa·s
308.15 K, 101.3 kPa	0.716 ± 0.015 mPa·s and 0.708 ± 0.029 mPa·s and 0.717 ± 0.08 mPa·s
309.15 K, 101 kPa	0.7052 ± 0.0074 mPa·s
310.65 K, 100.9 kPa	0.6848 ± 0.021 mPa·s
311.15 K, 101 kPa	0.6833 ± 0.015 mPa·s and 0.6783 ± 0.0072 mPa·s
313.15 K, 100 kPa	0.662 ± 0.053 mPa·s and 0.6579 ± 0.027 mPa·s and 0.66 ± 0.04 mPa·s
313.15 K, 101.33 kPa	0.5631 ± 0.021 mPa·s and 0.658 ± 0.018 mPa·s
315.15 K, 101 kPa	0.6291 ± 0.0067 mPa·s
316.15 K, 101 kPa	0.6189 ± 0.013 mPa·s
317.15 K, 101 kPa	0.6067 ± 0.0064 mPa·s
318.15 K, 101.3 kPa	0.594 ± 0.013 mPa·s and 0.589 ± 0.024 mPa·s and 0.592 ± 0.08 mPa·s
318.15 K, 101.33 kPa	0.6 ± 0.004 mPa·s and 0.6 ± 0.03 mPa·s
319.15 K, 101 kPa	0.5856 ± 0.0062 mPa·s
320.15 K, 101 kPa	0.5748 ± 0.012 mPa·s
320.65 K, 100.9 kPa	0.5706 ± 0.018 mPa·s
321.15 K, 101 kPa	0.5656 ± 0.006 mPa·s
322.9 K, 101 kPa	0.5516 ± 0.015 mPa·s
323.15 K, 100 kPa	0.567 ± 0.007 mPa·s and 0.566 ± 0.045 mPa·s
323.15 K, 101 kPa	0.56 ± 0.17 mPa·s and 0.5829 ± 0.008 mPa·s and 0.5538 mPa·s

CC(F)(F)Cl
101 kPa
Settings	viscosity [mPa·s]
293.15 K	0.2489 ± 0.0099
293.35 K	0.2432 ± 0.0087
293.45 K	0.2381 ± 0.0097
313.15 K	0.2004 ± 0.0054
313.25 K	0.2015 ± 0.0055
313.35 K	0.2002 ± 0.0054
